Starred links: 1 amine or outer side, 2 acyl side, 3 side chain; linkers in the order of their positions; H or OH if unused. Positions of bridges follow the written chain, without caps; N, C: chain ends. Non-standard residues stand in square brackets, D forms with d. Residues, ends and D or L forms follow the SMILES beside them. N(3-phenylpropyl)Gly = O=C(O)CNCCCc1ccccc1; Phe(4-Et) = CCc1ccc(C[C@H](N)C(=O)O)cc1; X1 = O=C(CN(Cc1ccc(F)c(F)c1)[*:1])[*:2]; X4 = Cc1ccc(CCN(CC(=O)[*:2])[*:1])cc1; cisHyp = O=C(O)[C@@H]1C[C@H](O)CN1; X2 = O=C(CCC[*:2])[*:1]; Mpa = O=C(O)CCS
Tests used:
hOT receptor = target: T1, hOT receptor (Homo sapiens, UniProt P30559); assay: transcriptional reporter gene assay (luciferase), agonist activity on hOT receptor in transfected CHO cells
T1 sequence (P30559 1-389): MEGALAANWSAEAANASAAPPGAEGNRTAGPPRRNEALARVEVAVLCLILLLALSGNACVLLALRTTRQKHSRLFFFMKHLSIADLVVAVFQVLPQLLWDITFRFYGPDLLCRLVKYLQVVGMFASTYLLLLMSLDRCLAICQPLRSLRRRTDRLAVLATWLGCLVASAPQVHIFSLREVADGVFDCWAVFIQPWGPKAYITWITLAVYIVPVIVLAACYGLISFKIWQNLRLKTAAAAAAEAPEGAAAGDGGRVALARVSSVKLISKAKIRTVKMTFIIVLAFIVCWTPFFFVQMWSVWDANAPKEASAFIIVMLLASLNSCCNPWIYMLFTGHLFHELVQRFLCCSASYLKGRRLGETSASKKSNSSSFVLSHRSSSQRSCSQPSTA
Protocol: (§1) Agonist activity of compounds on the hOT receptor was determined in a transcriptional reporter gene assay by transiently transfecting a hOT receptor expression DNA into a Chinese Hamster Ovary (CHO) cell line in concert with a reporter DNA containing intracellular calcium responsive promoter elements regulating expression of firefly luciferase.
(§2) The EC50 value given is the geometric mean expressed in nanomol/l (nM). Selectivity values are given as EC50 ratios.

[1] = target: human vasopressin (hV2) receptor (Homo sapiens, UniProt P30518); assay: luciferase-based transcriptional reporter gene assay expressing the human vasopressin (hV2) receptor; details: for Selectivity hV2/hOT: EC50 ratio hV2/hOT
Chain of human vasopressin (hV2) receptor (P30518 whole entry): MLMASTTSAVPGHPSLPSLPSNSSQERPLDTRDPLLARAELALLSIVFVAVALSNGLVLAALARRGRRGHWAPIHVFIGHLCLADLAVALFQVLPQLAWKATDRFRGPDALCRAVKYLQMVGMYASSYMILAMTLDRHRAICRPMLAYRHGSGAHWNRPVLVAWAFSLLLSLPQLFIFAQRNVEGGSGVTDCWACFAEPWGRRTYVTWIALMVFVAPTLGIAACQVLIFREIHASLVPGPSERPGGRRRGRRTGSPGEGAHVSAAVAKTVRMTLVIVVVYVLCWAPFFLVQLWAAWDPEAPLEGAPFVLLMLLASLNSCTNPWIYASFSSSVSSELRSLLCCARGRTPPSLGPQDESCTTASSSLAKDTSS
Protocol: as §1, §2

| Structure (SMILES) | EC50 (hOT receptor) | EC50 [1] | Selectivity hV2/hOT [1] |
| --- | --- | --- | --- |
| CC[C@H](C)[C@@H]1NC(=O)[C@H](Cc2ccc(O)cc2)NC(=O)CCSSC[C@@H](C(=O)N(CCc2ccc(C)cc2)CC(=O)N[C@@H](CC(C)C)C(=O)NCC(N)=O)NC(=O)[C@H](CC(N)=O)NC(=O)[C@H](CCC(N)=O)NC1=O [Compound 15] ([Mpa]YIQNC[X4]LG-NH2; disulfide 1-6) | 0.04 nM | 102 nM | 2533 |
| CCc1ccc(C[C@@H]2NC(=O)CCCSC[C@@H](C(=O)N3C[C@@H](O)C[C@H]3C(=O)N[C@@H](CC(C)C)C(=O)NCC(N)=O)NC(=O)[C@H](CC(N)=O)NC(=O)[C@H](CCC(N)=O)NC(=O)[C@H]([C@@H](C)CC)NC2=O)cc1 [Compound 6] ([Phe(4-Et)]IQNC[cisHyp]LG-NH2; linker N-5 via X2) | 0.064 nM | 39.9 nM | 629 |
| CC[C@H](C)[C@@H]1NC(=O)[C@H](Cc2ccc(O)cc2)NC(=O)CCSSC[C@@H](C(=O)N(CC(=O)N[C@@H](CC(C)C)C(=O)NCC(N)=O)Cc2ccc(F)c(F)c2)NC(=O)[C@H](CC(N)=O)NC(=O)[C@H](CCC(N)=O)NC1=O [Compound 11] ([Mpa]YIQNC[X1]LG-NH2; disulfide 1-6) | 0.026 nM | 58.5 nM | 2217 |
| CC[C@H](C)[C@@H]1NC(=O)[C@H](Cc2ccc(O)cc2)NC(=O)CCSSC[C@@H](C(=O)N(CCCc2ccccc2)CC(=O)N[C@@H](CC(C)C)C(=O)NCC(N)=O)NC(=O)[C@H](CC(N)=O)NC(=O)[C@H](CCC(N)=O)NC1=O [Compound 25] ([Mpa]YIQNC[N(3-phenylpropyl)Gly]LG-NH2; disulfide 1-6) | 0.058 nM | 159 nM | 2736 |
